This passage reports surviving fraction results from the supplement of paper PMC6045584.

Compound in experiment [1]: CC[C@@H](C(=O)[C@@H](C)[C@@H](O)[C@H](C)[C@@H]1O[C@@H]([C@@H](CC)C(=O)O)CC[C@@H]1C)[C@H]1O[C@]2(C=C[C@@H](O)[C@]3(CC[C@@](C)([C@H]4CC[C@](O)(CC)[C@H](C)O4)O3)O2)[C@H](C)C[C@@H]1C [SALINOMYCIN]
As to the kind of experiment: surviving fraction relative to DMSO-only wells; higher = less growth inhibition. The conditions noted are these: exposure time: 5 days. The procedure, abridged: (§1)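 Tumour cell lines were grown to log phase and seeded at 250–500 cells per well in 384-well plates. They were exposed continuously to inhibitors at 0.5, 1, 5, 10, 50, 100, 500 and 1000 nM for five days, beginning 24 hours after seeding. Surviving fraction is CellTiter-Glo luminescence normalised to the median of DMSO-only wells.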

Compound in experiment [2]: O=c1[nH]cc(F)c(=O)[nH]1 [FLUOROURACIL]
The experiment is described as above. The conditions noted are these: exposure time: 5 days. The procedure, abridged:
as §1

± gives the standard deviation of the averaged measurements.

For the test system 22RV1 PROSTATE, the surviving fraction was found to be 1.01 ± 0.075 in experiment [1] (0.5 nM); 0.987 ± 0.053 in experiment [1] (1 nM); 1 ± 0.06 in experiment [1] (5 nM); 0.942 ± 0.059 in experiment [1] (10 nM); 0.817 ± 0.031 in experiment [1] (50 nM); 0.448 ± 0.038 in experiment [1] (100 nM). Besides, the surviving fraction was 0.195 ± 0.021 in experiment [1] (500 nM); 0.125 ± 0.015 in experiment [1] (1000 nM); 1.07 ± 0.11 in experiment [2] (0.5 nM); 0.936 ± 0.068 in experiment [2] (1 nM); 1.1 ± 0.11 in experiment [2] (5 nM); 0.946 ± 0.13 in experiment [2] (10 nM). Besides, the surviving fraction worked out at 1.09 ± 0.053 in experiment [2] (50 nM), 1.104 ± 0.011 in experiment [2] (100 nM), 0.957 ± 0.15 in experiment [2] (500 nM) and 0.705 ± 0.18 in experiment [2] (1000 nM).

For the test system 93VU HEADNECK, the surviving fraction in experiment [1] (0.5 nM) was 0.887 ± 0.048; in experiment [1] (1 nM), 0.885 ± 0.11; in experiment [1] (5 nM), 1.01 ± 0.04; in experiment [1] (10 nM), 1.05 ± 0.023; in experiment [1] (50 nM) it was 0.976 ± 0.08; in experiment [1] (100 nM), 0.91 ± 0.053. Also, the surviving fraction came to 0.304 ± 0.041 in experiment [1] (500 nM); 0.177 ± 0.005 in experiment [1] (1000 nM); 1.01 ± 0.11 in experiment [2] (0.5 nM); 1 ± 0.052 in experiment [2] (1 nM); 1.07 ± 0.089 in experiment [2] (5 nM); 1.05 ± 0.11 in experiment [2] (10 nM). In addition, the surviving fraction was 0.884 ± 0.082 in experiment [2] (50 nM), 0.884 ± 0.0072 in experiment [2] (100 nM), 0.665 ± 0.062 in experiment [2] (500 nM) and 0.882 ± 0.063 in experiment [2] (1000 nM).

As for 143B BONE, the surviving fraction came to 0.98 ± 0.044 in experiment [1] (0.5 nM); 0.99 ± 0.026 in experiment [1] (1 nM); 1.02 ± 0.023 in experiment [1] (5 nM); 1.01 ± 0.027 in experiment [1] (10 nM); 1.03 ± 0.018 in experiment [1] (50 nM); 1.03 ± 0.035 in experiment [1] (100 nM). The surviving fraction in experiment [1] (500 nM) is 0.9815 ± 0.00071; in experiment [1] (1000 nM), 0.763 ± 0.028; in experiment [2] (0.5 nM) it was 1.12 ± 0.15; in experiment [2] (1 nM) it was 1.11 ± 0.079; in experiment [2] (5 nM), 1.14 ± 0.11; in experiment [2] (10 nM) it was 1.11 ± 0.094. The surviving fraction in experiment [2] (50 nM) came to 1.14 ± 0.17; in experiment [2] (100 nM) it was 1.12 ± 0.13; in experiment [2] (500 nM), 1.1 ± 0.12; in experiment [2] (1000 nM), 0.929 ± 0.029.

As to A549 LUNG, the surviving fraction in experiment [1] (0.5 nM) came to 0.944 ± 0.028; in experiment [1] (1 nM), 0.9123 ± 0.005; in experiment [1] (5 nM) it was 0.95 ± 0.033; in experiment [1] (10 nM), 0.907 ± 0.022; in experiment [1] (50 nM) it was 1.03 ± 0.028; in experiment [1] (100 nM) it was 0.97 ± 0.03. In addition, the surviving fraction in experiment [1] (500 nM) amounted to 0.729 ± 0.018; in experiment [1] (1000 nM), 0.528 ± 0.033; in experiment [2] (0.5 nM) it was 1.093 ± 0.0015; in experiment [2] (1 nM) it was 1.055 ± 0.007; in experiment [2] (5 nM), 1.051 ± 0.001; in experiment [2] (10 nM), 1.04 ± 0.032. In addition, the surviving fraction in experiment [2] (50 nM) amounted to 1.11 ± 0.019; in experiment [2] (100 nM) it was 1.029 ± 0.0045; in experiment [2] (500 nM) it was 1.05 ± 0.025; in experiment [2] (1000 nM), 0.554 ± 0.046.

For ASKA SYNOVIAL, the surviving fraction in experiment [1] (0.5 nM) stood at 1.05 ± 0.088; in experiment [1] (1 nM) it was 0.926 ± 0.086; in experiment [1] (5 nM) it was 1.02 ± 0.1; in experiment [1] (10 nM), 0.582 ± 0.048; in experiment [1] (50 nM) it was 1.14 ± 0.034; in experiment [1] (100 nM) it was 1.03 ± 0.016. The surviving fraction turned out to be 0.797 ± 0.073 in experiment [1] (500 nM); 0.441 ± 0.037 in experiment [1] (1000 nM); 1.1 ± 0.072 in experiment [2] (0.5 nM); 1.06 ± 0.081 in experiment [2] (1 nM); 1.17 ± 0.021 in experiment [2] (5 nM); 1.04 ± 0.024 in experiment [2] (10 nM). Also, the surviving fraction is 1.01 ± 0.05 in experiment [2] (50 nM), 0.937 ± 0.066 in experiment [2] (100 nM), 0.919 ± 0.068 in experiment [2] (500 nM) and 0.775 ± 0.042 in experiment [2] (1000 nM).

In the case of BT20 BREAST, the surviving fraction was found to be 0.964 ± 0.16 in experiment [1] (0.5 nM); 1.05 ± 0.14 in experiment [1] (1 nM); 1.12 ± 0.076 in experiment [1] (5 nM); 1.3 ± 0.25 in experiment [1] (10 nM); 1.32 ± 0.19 in experiment [1] (50 nM); 1.19 ± 0.25 in experiment [1] (100 nM). In addition, the surviving fraction worked out at 1.22 ± 0.31 in experiment [1] (500 nM); 1.13 ± 0.3 in experiment [1] (1000 nM); 1.15 ± 0.11 in experiment [2] (0.5 nM); 1.18 ± 0.11 in experiment [2] (1 nM); 1.25 ± 0.058 in experiment [2] (5 nM); 1.16 ± 0.07 in experiment [2] (10 nM). Moreover, the surviving fraction in experiment [2] (50 nM) came to 0.844 ± 0.079; in experiment [2] (100 nM) it was 0.836 ± 0.049; in experiment [2] (500 nM), 1.09 ± 0.049; in experiment [2] (1000 nM), 0.929 ± 0.1.

For BT549 BREAST, the surviving fraction in experiment [1] (0.5 nM) is 0.999 ± 0.033; in experiment [1] (1 nM) it was 1.18 ± 0.079; in experiment [1] (5 nM), 1.02 ± 0.056; in experiment [1] (10 nM) it was 0.93 ± 0.031; in experiment [1] (50 nM) it was 0.891 ± 0.35; in experiment [1] (100 nM), 0.73 ± 0.39. Besides, the surviving fraction in experiment [1] (500 nM) came out at 0.523 ± 0.2; in experiment [1] (1000 nM), 0.341 ± 0.079; in experiment [2] (0.5 nM), 1.07 ± 0.13; in experiment [2] (1 nM), 1.06 ± 0.024; in experiment [2] (5 nM), 1.05 ± 0.21; in experiment [2] (10 nM), 0.95 ± 0.12. The surviving fraction is 0.8 ± 0.06 in experiment [2] (50 nM), 0.843 ± 0.15 in experiment [2] (100 nM), 0.872 ± 0.084 in experiment [2] (500 nM) and 0.585 ± 0.071 in experiment [2] (1000 nM).

As to C33A CERVIX, the surviving fraction in experiment [1] (0.5 nM) was 0.812 ± 0.13; in experiment [1] (1 nM), 0.769 ± 0.16; in experiment [1] (5 nM) it was 1 ± 0.12; in experiment [1] (10 nM), 1.05 ± 0.21; in experiment [1] (50 nM), 1.08 ± 0.035; in experiment [1] (100 nM) it was 1.08 ± 0.13. Further, the surviving fraction in experiment [1] (500 nM) is 0.328 ± 0.024; in experiment [1] (1000 nM), 0.25 ± 0.0067; in experiment [2] (0.5 nM), 1 ± 0.086; in experiment [2] (1 nM) it was 1.12 ± 0.043; in experiment [2] (5 nM), 1.08 ± 0.11; in experiment [2] (10 nM), 1.16 ± 0.05. Moreover, the surviving fraction in experiment [2] (50 nM) came to 1.1 ± 0.055; in experiment [2] (100 nM), 1.1 ± 0.06; in experiment [2] (500 nM), 1.02 ± 0.085; in experiment [2] (1000 nM) it was 1.28 ± 0.055.
